Experimental findings from patent US20240228535A1 (priority 2022, published 2024) are described below.

The structures appear in SMILES notation.

The target in this assay is SARS2 coronavirus 3CL protease (Severe acute respiratory syndrome coronavirus 2, UniProt P0DTD1). Briefly: biochemical. The conditions noted are these: 5 nM enzyme, 30 min pre-incubation with compound, 15 μM peptide substrate, 4 h at room temperature; read-out: FRET Potency (nM); IC50 values in the SARS2 3CLPro FRET assay.
`CNC(=O)C(=O)[C@H](C[C@@H]1C[C@@H](C)NC1=O)NC(=O)c1cc(Cl)ccc1NC(=O)C1CC1C(F)(F)F` (stereo partly drawn) [Example 189, 5-chloro-N-[(1S)-3-(methylamino)-1-[[(3S,5R)-5-methyl-2-oxo-pyrrolidin-3-yl]methyl]-2,3-dioxo-propyl]-2-[[2-(trifluoromethyl)cyclopropane-carbonyl]amino]benzamide]: the IC50 was 3.5 nM.

As to `C[C@@H]1C[C@@H](C[C@H](NC(=O)c2cc(Cl)ccc2NC(=O)c2ccc(C(F)(F)F)nc2)C(=O)C(=O)NC2CC2)C(=O)N1` [Example 225, N-[4-chloro-2-[[(1S)-3-(cyclopropylamino)-1-[[(3S,5R)-5-methyl-2-oxo-pyrrolidin-3-yl]methyl]-2,3-dioxo-propyl]carbamoyl]phenyl]-6-(trifluoromethyl)pyridine-3-carboxamide], the IC50 was 6.8 nM.

As for `CNC(=O)C(=O)[C@H](C[C@@H]1CCNC1=O)NC(=O)c1cc(Cl)ccc1NC(=O)C1CC1` [Example 110, 5-chloro-2-(cyclopropanecarbonylamino)-N-[(1S)-3-(methylamino)-2,3-dioxo-1-[[(3S)-2-oxopyrrolidin-3-yl]methyl]propyl]benzamide], the IC50 came to 3.1 nM.

Turning to `CNC(=O)C(=O)[C@H](C[C@@H]1C[C@@H](C)NC1=O)NC(=O)c1cc(Cl)ccc1NC(=O)OCC1CCCC(F)(F)C1` (stereo partly drawn) [Example 219, (3,3-difluorocyclohexyl)methyl N-[4-chloro-2-[[(1S)-3-(methylamino)-1-[(3S,5R)-5-methyl-2-oxo-pyrrolidin-3-yl]methyl]-2,3-dioxo-propyl]carbamoyl]phenyl] carbamate], the IC50 turned out to be 7.1 nM.

Take `CNC(=O)C(=O)[C@H](C[C@@H]1C[C@@H](C)NC1=O)NC(=O)c1cc(Cl)ccc1NC(=O)C1CCCC(F)(F)C1` (single isomer, unassigned) [Example 199]: the IC50 came out at 18.7 nM.

Take `CNC(=O)C(=O)[C@H](C[C@@H]1CCNC1=O)NC(=O)c1cc(Cl)ccc1NC(=O)OC1CC1(F)F` (stereo partly drawn) [Example 157, (2,2-difluorocyclopropyl) N-[4-chloro-2-[[(1S)-3-(methylamino)-2,3-dioxo-1-[[(3S)-2-oxopyrrolidin-3-yl]methyl]propyl]carbamoyl]phenyl]carbamate]: the IC50 is 8.9 nM.

As to `C[C@@H]1C[C@@H](C[C@H](NC(=O)c2cc(Cl)ccc2NC(=O)[C@@H]2CNC(=O)O2)C(=O)C(=O)NC2CC2)C(=O)N1` [Example 193, (5S)-N-[4-chloro-2-[[(1S)-3-(cyclopropylamino)-1-[[(3S,5R)-5-methyl-2-oxo-pyrrolidin-3-yl]methyl]-2,3-dioxo-propyl]carbamoyl]phenyl]-2-oxo-oxazolidine-5-carboxamide], the IC50 was determined as 5.2 nM.

Turning to `CNC(=O)C(=O)[C@H](C[C@@H]1C[C@@H](C)NC1=O)NC(=O)c1cc(Cl)ccc1NC(=O)C1CN(C)C1` [Example 149, N-[4-chloro-2-[[(1S)-3-(methylamino)-1-[[(3S,5R)-5-methyl-2-oxo-pyrrolidin-3-yl]methyl]-2,3-dioxo-propyl]carbamoyl]phenyl]-1-methyl-azetidine-3-carboxamide], the IC50 amounted to 10.8 nM.

For the compound `CNC(=O)C(=O)[C@H](C[C@@H]1C[C@@H](C)NC1=O)NC(=O)c1cc(Cl)cnc1NC(=O)C12CC(F)(C1)C2` [Example 50, 5-chloro-2-[(3-fluorobicyclo[1.1.1]pentane-1-carbonyl)amino]-N-[(1S)-3-(methylamino)-1-[[(3S,5R)-5-methyl-2-oxo-pyrrolidin-3-yl]methyl]-2,3-dioxo-propyl]pyridine-3-carboxamide], the IC50 was 8.7 nM.

With `CNC(=O)C(=O)[C@H](C[C@@H]1C[C@@H](C)NC1=O)NC(=O)c1cc(Cl)ccc1NC(=O)C12CC(C(F)(F)F)(C1)C2` [Example 46, N-[4-chloro-2-[[(1S)-3-(methylamino)-1-[[(3S,5R)-5-methyl-2-oxo-pyrrolidin-3-yl]methyl]-2,3-dioxo-propyl]carbamoyl]phenyl]-3-(trifluoromethyl)bicyclo[1.1.1] pentane-1-carboxamide], the IC50 was 8.9 nM.
